Entries after “also recorded” stand apart in the source; their conditions may differ.
Columns and labels:
[1] = target: T1, MAO-A (monoamine oxidase A) (Homo sapiens, UniProt P21397); conditions: from studies; cited from earlier work
T1 sequence (P21397 1-527): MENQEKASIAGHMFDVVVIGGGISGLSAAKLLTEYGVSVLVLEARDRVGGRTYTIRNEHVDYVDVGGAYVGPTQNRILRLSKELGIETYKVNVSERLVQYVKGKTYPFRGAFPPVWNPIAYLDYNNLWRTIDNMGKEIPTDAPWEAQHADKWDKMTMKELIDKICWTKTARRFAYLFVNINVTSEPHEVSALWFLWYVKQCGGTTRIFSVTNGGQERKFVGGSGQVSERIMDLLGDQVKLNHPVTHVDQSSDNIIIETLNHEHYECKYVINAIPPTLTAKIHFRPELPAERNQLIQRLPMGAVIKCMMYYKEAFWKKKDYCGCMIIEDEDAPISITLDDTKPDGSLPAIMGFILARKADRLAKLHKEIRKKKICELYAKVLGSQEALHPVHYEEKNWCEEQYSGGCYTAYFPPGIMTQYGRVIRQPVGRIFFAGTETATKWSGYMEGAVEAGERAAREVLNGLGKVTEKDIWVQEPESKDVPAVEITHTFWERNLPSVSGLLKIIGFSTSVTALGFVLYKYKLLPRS

[2] = system: WT (C57BL/6) mice; test: Intravital microscopy, laser-induced cremaster arteriolar injury, WT mice; type: in vivo, mouse; conditions: iv 5 μg/g BW
Protocol: Intravital microscopy was performed in a mouse model of laser-induced cremaster arteriolar injury as previously described. WT (C57BL/6), littermate WT control, and CKO and KO male mice (8-10 weeks old) were anesthetized with intraperitoneal injection of ketamine and xylazine. The cremaster muscle was exteriorized and superfused with 37° C. bicarbonate-buffered saline throughout the experiment. Arteriolar wall injury was induced by laser ablation (Photonics Instruments) as previously described. Multiple thrombi were generated in at least 3 to 4 different arterioles of 1 mouse, with new thrombi formed upstream of earlier thrombi to minimize any contribution from thrombi generated earlier in the mouse. Platelets and fibrin were visualized by infusion of DyLight 649-conjugated anti-CD42c (0.2 μg/g body weight [BW]) and Alexa Fluor 488-conjugated anti-fibrin (0.2 μg/g BW) antibodies, respectively. To detect extracellular Ero1α, Alexa Fluor 488-conjugated rabbit IgG or nonblocking anti-ERO1α antibodies (0.3 μg/g BW) were injected into WT (C57BL/6), WT control, Ero1α KO, and Ero1α CKO mice. In some experiments, wtERO1α or activity-null ERO1α-Cys94Ser (mutant ERO1α [mERO1α]; 4 μg/g BW) was infused into Ero1α KO mice before imaging. To test the effect of ERO1α inhibitors or blocking anti-ERO1α antibodies, WT (C57BL/6) mice were treated with intravenous injection of vehicle control, eptifibatide (5 μg/g BW), B12-5 (5 μg/g BW), isotype control IgGs, anti-ERO1α (15E9, 1-3 μg/g BW), or anti-PDI (BD34, 3 μg/g BW) 3 minutes before treatment with the anti-CD42c and anti-fibrin antibodies. The same dose of eptifibatide was injected every 20 minutes to maintain the inhibitory effect. […] Fluorescence and bright-field images were captured in 6 to 10 different cremaster arterioles with a diameter of 30 to 45 μm in each mouse and recorded using either an Olympus BX61W microscope with a 60×1.0 salt water immersion objective or a Zeiss Axio Examiner Z1 microscope system with a Yokogawa confocal spinning disk (CSU-W1) equipped with 4 stack laser system (405-, 488-, 561-, and 637-nm wavelengths). Images were collected with a high-speed, high-resolution camera (2304×2304 pixel format; ORCA-Fusion BT sCMOS, Hamamatsu). Time 0 was set to when image capture began on each vessel. The data were analyzed using Slidebook (version 6.0; Intelligent Imaging Innovations). Due to the significant variation between vessels in the same mouse, the result from each vessel was counted as an individual value. Representative images were chosen that most closely resemble the mean values in the quantifications.

| SMILES | IC50 [1] [µM] | platelet thrombus formation [2] | platelet thrombus formation ([2]; listed as B112-5) |
| --- | --- | --- | --- |
| O=C(O)c1cc(N2N=C(C(F)(F)F)/C(=C/c3ccc(-c4ccccc4)o3)C2=O)ccc1Cl [EN460] | 7.9 |  |  |
| O=C(CSc1nc(O)cc(O)n1)N1c2ccccc2Sc2ccccc21 [B12-5] |  | significantly inhibited; also recorded: significantly reduced | inhibit |
